The results in this text go back to ChEMBL document CHEMBL1201862, “PubChem BioAssay data set” (2004).

Molecules are shown by their SMILES.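 Cultured in 96-well plates, cells were exposed to test compound for 48 hours across five concentrations. Here, GI50 denotes the concentration required for 50% inhibition of growth.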 Calls of active or inactive are those of the source. No stated cut-off is given here; in the data, active = GI50 up to about 1.1 µM and inactive = higher. A value given as a limit tells only on which side of the number the result lay.

What all share (test): DTP human tumour cell line panel, 48 h
Experiment [1] relates to DU-145.
Experiment [2] concerns HCT-116.
Experiment [3] concerns HL-60.
For experiment [4], the system named is Malme-3M.
The subject of experiment [5] is NCI-H226.
Experiment [6] relates to NCI-H460.
In experiment [7] the test system is NCI-H522.
Experiment [8] deals with OVCAR-5.
Experiment [9] has as its system PC-3.
The subject of experiment [10] is SF-295.
Experiment [11] deals with SF-539.
Experiment [12] has as its system SK-MEL-2.
Experiment [13] concerns SN12C.
Experiment [14] relates to SNB-19.
The test system of experiment [15] is SW-620.
Experiment [16] relates to U-251.
In experiment [17] the test system is UACC-257.
Experiment [18] has as its system UACC-62.
Experiment [19] concerns UO-31.
Experiment [20] relates to K562.

As to `NC(=O)C/C=C/CC(N)=O`, the GI50 in experiment [1], in experiment [2], in experiment [3], in experiment [4], in [5] and in [6] was > 100 µM (inactive) each time. Moreover, the GI50 in experiment [7], in [8], in [9], in [10], in experiment [11] and in experiment [12] was > 100 µM (inactive) each time. Also, the GI50 in experiment [13], in [14], in [15], in [16], in [17] and in experiment [18] was > 100 µM (inactive) each time. Besides, the GI50 in experiment [19] was > 100 µM (inactive).

Regarding `O=C(CNc1cccc([N+](=O)[O-])c1)Nn1c(-c2ccccc2)nc2ccccc2c1=O`, the GI50 is 2.38 µM (inactive) in experiment [1]; 0.508 µM (active) in experiment [2]; 0.422 µM (active) in experiment [3]; 0.528 µM (active) in experiment [20]; 0.973 µM (active) in experiment [4]; 0.2 µM (active) in [5]. The GI50 is 0.555 µM (active) in experiment [6]; 0.433 µM (active) in experiment [7]; 1.77 µM (inactive) in [8]; 0.543 µM (active) in experiment [9]; 1.58 µM (inactive) in experiment [10]; 1.97 µM (inactive) in [11]. Further, the GI50 is 0.508 µM (active) in experiment [13]; 2.11 µM (inactive) in [14]; 0.33 µM (active) in experiment [15]; 1.05 µM (active) in experiment [16]; 2.15 µM (inactive) in [17]; 0.212 µM (active) in [18]. The GI50 in [19] is 0.743 µM (active).

As for `CC(O)c1nc(C#N)c(N)o1` (stereo not given), the GI50 in experiment [1], in [2], in [3], in experiment [20], in experiment [4] and in [5] was > 100 µM (inactive) throughout. Further, the GI50 in [7], in experiment [8], in experiment [9], in experiment [10], in experiment [11] and in experiment [12] was > 100 µM (inactive) throughout. Moreover, the GI50 in experiment [13], in experiment [14], in experiment [15], in experiment [16], in experiment [17] and in [18] was > 100 µM (inactive) in each case. Also, the GI50 in experiment [19] was > 100 µM (inactive).

Consider `O=C([O-])C1([n+]2c(-c3ccccc3)cc(-c3ccccc3)cc2-c2ccccc2)CC1`, for which the GI50 in experiment [1] is > 100 µM (inactive); in [2], 41.1 µM (inactive); in experiment [3], 21.8 µM (inactive); in [20] it was 27.5 µM (inactive); in experiment [4], 34.5 µM (inactive); in experiment [5] it was > 100 µM (inactive). Also, the GI50 in [6] was 74.5 µM (inactive); in experiment [7], 54.7 µM (inactive); in experiment [8] it was > 100 µM (inactive); in experiment [9], 80.4 µM (inactive); in experiment [10], > 100 µM (inactive); in experiment [11], > 100 µM (inactive). In addition, the GI50 in experiment [13] is > 100 µM (inactive); in experiment [14], 43.2 µM (inactive); in experiment [15] it was > 100 µM (inactive); in experiment [16] it was 28.7 µM (inactive); in [17] it was 25.4 µM (inactive); in experiment [18], 21.5 µM (inactive).

As for `N#Cc1c(-c2ccc(Cl)cc2)cc(-c2ccc(Nc3ccnc4cc(C(F)(F)F)ccc34)cc2)[nH]c1=O`, the GI50 in [1] was 22.9 µM (inactive); in experiment [2], 4.76 µM (inactive); in experiment [3], 10.8 µM (inactive); in experiment [20] it was 3.52 µM (inactive); in experiment [4] it was 14.1 µM (inactive); in experiment [5] it was > 92.3 µM (inactive). Besides, the GI50 in experiment [6] was > 100 µM (inactive); in experiment [7] it was 50 µM (inactive); in experiment [8], > 40.5 µM (inactive); in experiment [9], 69.2 µM (inactive); in experiment [10], 36.1 µM (inactive); in experiment [11], 6.65 µM (inactive). For the same molecule, the GI50 in [12] was 57.4 µM (inactive); in experiment [13], 59.2 µM (inactive); in [14], 9.73 µM (inactive); in experiment [15], 14 µM (inactive); in [16] it was 2.63 µM (inactive); in experiment [17] it was 37.2 µM (inactive). For the same molecule, the GI50 in [18] is 21.9 µM (inactive).

As to `COc1ccc(C2N(c3ccc(F)c([N+](=O)[O-])c3)C(=O)N3C(c4ccc(OC)cc4)N(c4ccc(F)c([N+](=O)[O-])c4)C(=O)N23)cc1` (stereo not given), the GI50 in experiment [1], in experiment [2], in experiment [3], in experiment [4], in experiment [6] and in experiment [7] was > 100 µM (inactive) each time. The GI50 in experiment [8], in experiment [9], in experiment [10], in [11], in experiment [12] and in [13] was > 100 µM (inactive) throughout. The GI50 in experiment [14], in [15], in experiment [16], in experiment [17], in experiment [18] and in experiment [19] was > 100 µM (inactive) each time.

Consider `CCOC(=O)c1ccc(/N=C2\Sc3nc4ccccc4n3\C2=N\c2ccc(C(=O)OCC)cc2)cc1`, for which the GI50 was 28.9 µM (inactive) in experiment [1]; 6.58 µM (inactive) in experiment [2]; > 100 µM (inactive) in [3]; 22.7 µM (inactive) in [4]; 29.2 µM (inactive) in experiment [5]; 22.5 µM (inactive) in experiment [6]. Also, the GI50 in [7] was 24.7 µM (inactive); in [8] it was 60 µM (inactive); in [9], 37.7 µM (inactive); in experiment [10], 16.2 µM (inactive); in [11], 21 µM (inactive); in experiment [12] it was 39.3 µM (inactive). Moreover, the GI50 in experiment [13] was 40.6 µM (inactive); in [14] it was 12.1 µM (inactive); in experiment [15], 21.5 µM (inactive); in experiment [17], 31.5 µM (inactive); in experiment [18], 16.1 µM (inactive).

In the case of `CC(NC(=O)CNP(=O)(c1ccccc1)c1ccccc1)C(=O)NC(Cc1ccccc1)C(=O)OCc1ccccc1` (stereo not given), the GI50 is > 100 µM (inactive) in experiment [1]; 34.9 µM (inactive) in experiment [2]; 28.6 µM (inactive) in experiment [3]; > 10 µM (inactive) in [20]; 60.8 µM (inactive) in experiment [4]; > 100 µM (inactive) in experiment [5]. Moreover, the GI50 in experiment [7] is 19.6 µM (inactive); in [8], > 100 µM (inactive); in experiment [9], 60.7 µM (inactive); in experiment [10] it was 19 µM (inactive); in [11] it was 62.2 µM (inactive); in [12] it was 51.2 µM (inactive). For the same molecule, the GI50 in experiment [13] was 42.7 µM (inactive); in experiment [14], 51.2 µM (inactive); in [15], 45.7 µM (inactive); in [16], 23.4 µM (inactive); in experiment [17], > 100 µM (inactive); in experiment [18] it was 36.3 µM (inactive). In addition, the GI50 in experiment [19] was > 100 µM (inactive).

For `O=C(O)c1ccc(Nc2nc3ccc(C(F)(F)F)cc3nc2-c2ccccc2)cc1`, the GI50 in experiment [1] was > 10 µM (inactive); in experiment [2], 29.6 µM (inactive); in experiment [3], 20.6 µM (inactive); in experiment [20], 45.2 µM (inactive); in experiment [4], 33.2 µM (inactive); in experiment [5], 46.1 µM (inactive). The GI50 in experiment [6] is 29.6 µM (inactive); in [7], 28.6 µM (inactive); in [8], 78 µM (inactive); in [9] it was 50.9 µM (inactive); in experiment [10], 48 µM (inactive); in experiment [11], 27 µM (inactive). For the same molecule, the GI50 in experiment [13] is 77.6 µM (inactive); in experiment [14], 52.2 µM (inactive); in [15] it was 45.7 µM (inactive); in [16] it was 31.4 µM (inactive); in [17] it was 70 µM (inactive); in experiment [18], 14.6 µM (inactive). Further, in experiment [19], the GI50 was 23.9 µM (inactive).

As to `Nc1nc(NCCCO)cc(=O)[nH]1`, the GI50 in [1], in experiment [2], in experiment [3], in experiment [20], in experiment [4] and in [5] was > 100 µM (inactive) each time. The GI50 in experiment [6], in experiment [7], in experiment [8], in experiment [9], in experiment [10] and in experiment [12] was > 100 µM (inactive) each time. Also, the GI50 in experiment [13], in [14], in experiment [15], in experiment [16], in experiment [17] and in [18] was > 100 µM (inactive) throughout. In addition, the GI50 in [19] is > 100 µM (inactive).

On to `COc1ccc(\N=C/C=C/C(=C/COC(C)=O)OC(C)=O)cc1`, for which the GI50 is 39.4 µM (inactive) in experiment [1]; 5.53 µM (inactive) in experiment [2]; 19.1 µM (inactive) in experiment [3]; 4.89 µM (inactive) in experiment [20]; 31.2 µM (inactive) in experiment [4]; > 100 µM (inactive) in [5]. For the same molecule, the GI50 in experiment [6] was 34.5 µM (inactive); in [7] it was 6.62 µM (inactive); in experiment [8], 40.5 µM (inactive); in [9], 36.4 µM (inactive); in experiment [10], 58.5 µM (inactive); in experiment [11] it was 35.9 µM (inactive). Also, the GI50 was 16.7 µM (inactive) in [12]; 32.7 µM (inactive) in experiment [13]; 58.6 µM (inactive) in experiment [14]; 10.2 µM (inactive) in experiment [15]; 25.9 µM (inactive) in experiment [16]; 27.4 µM (inactive) in experiment [17]. For the same molecule, the GI50 in [18] is 37.1 µM (inactive).
